According to patent publication US20220193060A1, “Inhibition of IL-1 Induced Inflammation” (THIOLAB, LLC., priority 2019, published 2022):
“Also recorded” adds a separate entry of the source.

Tests used:
IL-6 = assay: LPS-stimulated macrophages, IL-6 ELISA; type: cell-based, murine
Protocol: An in vitro model of inflammation mediated by macrophages is used. Primary macrophages isolated from humans or non-human species (e.g., mice or rats) were used. A murine macrophage cell line RAW264.7 (CCRL-2278) was also used. Macrophages are treated with CPDS. […] Then the effect of CPDS on inflammation is assessed by comparing the levels of […] mediators IL-6 and IL-10. IL-10 and IL-6 were determined by ELISA. The level of IL-6 and IL-10 were compared to the level prior to CPDS treatment.

IL-1β = IL-1β ELISA, PMA-treated THP-1 cells stimulated with IFNγ and LPS; type: cell-based, human; details: for Ave IL-Ib 1/10 Avg / Ave IL-Ib 1/10 Rep 1 / Ave IL-Ib 1/10 Rep 2 / Ave IL-Ib 2/28 Rep 1 / Ave IL-Ib 2/28 Rep 2 / Ave IL-Ib 2/28 Rep 3 / IL-1β Relative %: THP-1
Protocol: Methodology: The study included replicated tests of IL-1β levels with and without CPDS, as well as reference testing of untreated cells and cells treated with lactoferrin and clobetasol. A third test was conducted of IL-1 receptor […] (IL-1RA) receptor, to assist in distinguishing whether reductions in IL-1β levels were associated with secretion or receptor blocking (via the receptor antagonist). Cell viability studies were conducted for both sets of tests. Each of the tests used an ELISA model with the following protocols. 1. THP-1 cells were grown in (RPMI+10% FBS, 10 mM HEPES, 1 mM Sodium Pyruvate, and 0.05 mM 2-Mecaptpethanol) to P8. 2. Cells were plated at 30,000 cells per well in 120 ul with Media+20 ng/ml PMA+2× Genta. 3. […] Cells were treated according to plan below. 5. Cells were incubated for three more days at 37° C. and 5% CO2. 6. Cell supernatant were collected and ELISA was measured for IL-1RA, IL-1α, and IL-1β. 7. Plate was read at 490 nm until O.D reached 1.5. Day 1—1. THP-1+20 ng/ml PMA 30,000 cells per well 120 uL Day 3—1. Add Compound at 4× in 60 uL. Incubate for 2 hours. CPDS—800 uM (200 uM Final), lactoferrin—800 ug/mL (200 ug/ml Final) clobetasol −40 ng/mL (10 ng/mL Final). 2. […] Add 30 uL LPS at 8×—20 ng/ml (2.5 ng/ml final) in 30 uL (Wells 2-10) 4. Incubate for 3 days. Day 6—1. Collect 80 ul of sample 2 times and freeze for ELISA. 2. Develop with 15 uL of Substrate and read at 490 nm until plate reaches 1.5 OD. THP-1 is a spontaneously immortalized monocyte-like cell line, derived from the peripheral blood of a childhood case of acute monocytic leukemia, which has been extensively used to study monocyte/macrophage functions, mechanisms, signaling pathways, and nutrient and drug transport. This cell line has become a common model to estimate modulation of monocyte and macrophage activities.

arthritic psoriasis = assay: Case: oral CPDS for arthritic psoriasis; type: in vivo, human; details: oral 140 mg/day, 4 days a week
Protocol: The patient was a person. Their disease began 1 year previously. Their main complaint was pain in their right wrist, which prevented them from using their right hand and arm; they had bothersome itching cutaneous psoriatic lesions. Treatment at the time consisted of cortisone (5 mg/day) and non-steroidal anti-inflammatory drugs and weekly administrations of methotrexate (MTX) 5 mg/week. The side effects of MTX were severe stomach, throat, and mouth lesions, nightmares, visual hallucinations, and dizziness. The patient began taking oral CPDS 90 days previous (140 mg/day), 4 days a week. Within a few days, the side effects of MTX became much milder, and their immune defenses increased. Instead of catching a cold, as they had often, that lasted for weeks and needed antibiotics, their colds were much more brief normal duration.

RAW 264.7 cells = assay: Cell viability of RAW 264.7 cells; type: cell-based; details: murine RAW 264.7 cells
[1] = system: non-malignant intraductal breast hyperplasia; assay: Case: oral CPDS for breast hyperplasia; type: in vivo, human
Protocol: An individual, diagnosed with non-malignant intraductal breast hyperplasia on the upper left quadrant of the left breast was treated with CPDS. […] CPDS was administered in 99.7% pure form in capsules without excipients.

[2] = cited from earlier work
[3] = CPDS 1.6 uM + 10 ng/ml IFNy + 2.5 ng/ml LPS
[4] = CPDS 3.1 uM + 10 ng/ml IFNy + 2.5 ng/ml LPS
[5] = CPDS 6.3 uM + 10 ng/ml IFNy + 2.5 ng/ml LPS
[6] = CPDS 12.5 uM + 10 ng/ml IFNy + 2.5 ng/ml LPS
[7] = CPDS 25.0 uM + 10 ng/ml IFNy + 2.5 ng/ml LPS
[8] = CPDS 50.0 uM + 10 ng/ml IFNy + 2.5 ng/ml LPS
[9] = CPDS 100.0 uM + 10 ng/ml IFNy + 2.5 ng/ml LPS
[10] = CPDS 200.0 uM + 10 ng/ml IFNy + 2.5 ng/ml LPS
[11] = IV doses up to 300 mg/kg (1 mM)

O=C(O)c1ccc(SSc2ccc(C(=O)O)cn2)nc1 [CPDS, 6,6′-dithiodinicotinic acid]
IL-6 levels / expression (IL-6; FIG. 3, macrophages inflamed by LPS, dosage series of CPDS): dramatically reduced; also recorded: concentration dependent diminution | expression level of IL-6 (IL-6; macrophages, CPDS (e.g., 50 μM) 90 minutes before LPS (10 ug/ml), 24 to 48 hours): dramatically reduced | activity on IL-6 compared with DEX (IL-6; murine RAW 264.7 cells, LPS): more active | secretion of IL-6 (IL-6; murine RAW 264.7 cells, pre-treatment prior to LPS): drastically reduced | neutralization of production of IL-1β in human cells (IL-1β; 25 μM): near neutralization | Ave IL-Ib 1/10 Avg (IL-1β; [3]): 0.19 ng/mL | Ave IL-Ib 1/10 Rep 1 (IL-1β; [3]): 0.19 ng/mL | Ave IL-Ib 1/10 Rep 2 (IL-1β; [3]): 0.18 ng/mL | Ave IL-Ib 2/28 Rep 1 (IL-1β; [3]): 0.32 ng/mL | Ave IL-Ib 2/28 Rep 2 (IL-1β; [3]): 0.29 ng/mL | Ave IL-Ib 2/28 Rep 3 (IL-1β; [3]): 0.30 ng/mL | IL-1β Relative % (IL-1β; [3]): 114.2% | Ave IL-Ib 1/10 Avg (IL-1β; [4]): 0.19 ng/mL | Ave IL-Ib 1/10 Rep 1 (IL-1β; [4]): 0.21 ng/mL | Ave IL-Ib 1/10 Rep 2 (IL-1β; [4]): 0.17 ng/mL | Ave IL-Ib 2/28 Rep 1 (IL-1β; [4]): 0.30 ng/mL | Ave IL-Ib 2/28 Rep 2 (IL-1β; [4]): 0.26 ng/mL | Ave IL-Ib 2/28 Rep 3 (IL-1β; [4]): 0.28 ng/mL | IL-1β Relative % (IL-1β; [4]): 105.2% | Ave IL-Ib 1/10 Avg (IL-1β; [5]): 0.15 ng/mL | Ave IL-Ib 1/10 Rep 1 (IL-1β; [5]): 0.15 ng/mL | Ave IL-Ib 1/10 Rep 2 (IL-1β; [5]): 0.14 ng/mL | Ave IL-Ib 2/28 Rep 1 (IL-1β; [5]): 0.23 ng/mL | Ave IL-Ib 2/28 Rep 2 (IL-1β; [5]): 0.24 ng/mL | Ave IL-Ib 2/28 Rep 3 (IL-1β; [5]): 0.24 ng/mL | IL-1β Relative % (IL-1β; [5]): 88.7% | Ave IL-Ib 1/10 Avg (IL-1β; [6]): 0.08 ng/mL | Ave IL-Ib 1/10 Rep 1 (IL-1β; [6]): 0.09 ng/mL | Ave IL-Ib 1/10 Rep 2 (IL-1β; [6]): 0.06 ng/mL | Ave IL-Ib 2/28 Rep 1 (IL-1β; [6]): 0.13 ng/mL | Ave IL-Ib 2/28 Rep 2 (IL-1β; [6]): 0.11 ng/mL | Ave IL-Ib 2/28 Rep 3 (IL-1β; [6]): 0.12 ng/mL | IL-1β Relative % (IL-1β; [6]): 45.8% | Ave IL-Ib 1/10 Avg (IL-1β; [7]): 0.04 ng/mL | Ave IL-Ib 1/10 Rep 1 (IL-1β; [7]): 0.05 ng/mL | Ave IL-Ib 1/10 Rep 2 (IL-1β; [7]): 0.03 ng/mL | Ave IL-Ib 2/28 Rep 1 (IL-1β; [7]): 0.04 ng/mL | Ave IL-Ib 2/28 Rep 2 (IL-1β; [7]): 0.03 ng/mL | Ave IL-Ib 2/28 Rep 3 (IL-1β; [7]): 0.04 ng/mL | IL-1β Relative % (IL-1β; [7]): 13.7% | Ave IL-Ib 1/10 Avg (IL-1β; [8]): 0.01 ng/mL | Ave IL-Ib 1/10 Rep 1 (IL-1β; [8]): 0.01 ng/mL | Ave IL-Ib 1/10 Rep 2 (IL-1β; [8]): 0.01 ng/mL | Ave IL-Ib 2/28 Rep 1 (IL-1β; [8]): 0.02 ng/mL | Ave IL-Ib 2/28 Rep 2 (IL-1β; [8]): 0.01 ng/mL | Ave IL-Ib 2/28 Rep 3 (IL-1β; [8]): 0.02 ng/mL | IL-1β Relative % (IL-1β; [8]): 6.1% | Ave IL-Ib 1/10 Avg (IL-1β; [9]): 0.01 ng/mL | Ave IL-Ib 1/10 Rep 1 (IL-1β; [9]): 0.01 ng/mL | Ave IL-Ib 1/10 Rep 2 (IL-1β; [9]): 0.01 ng/mL | Ave IL-Ib 2/28 Rep 1 (IL-1β; [9]): 0.03 ng/mL | Ave IL-Ib 2/28 Rep 2 (IL-1β; [9]): 0.01 ng/mL | Ave IL-Ib 2/28 Rep 3 (IL-1β; [9]): 0.02 ng/mL | IL-1β Relative % (IL-1β; [9]): 8.2% | Ave IL-Ib 1/10 Avg (IL-1β; [10]): 0.01 ng/mL | Ave IL-Ib 1/10 Rep 1 (IL-1β; [10]): 0.01 ng/mL | Ave IL-Ib 1/10 Rep 2 (IL-1β; [10]): 0.01 ng/mL | Ave IL-Ib 2/28 Rep 1 (IL-1β; [10]): 0.02 ng/mL | Ave IL-Ib 2/28 Rep 2 (IL-1β; [10]): 0.02 ng/mL | Ave IL-Ib 2/28 Rep 3 (IL-1β; [10]): 0.02 ng/mL | IL-1β Relative % (IL-1β; [10]): 6.8% | ability of IFN-γ to stimulate the production of IL-1β (IL-1β; FIG. 1, clinically obtainable levels of CPDS): markedly reduce | levels of IL-1β (IL-1β; FIG. 2, in the presence of LPS): substantially reduce | secretion of IL-1β blocked (IL-1β; concentration as low as 50 uM CPDS): 94% | neutralization of IL-1β (IL-1β; concentrations of 12.5 to 200 μM): complete neutralization | reduction of measured IL-1β levels (IL-1β; concentrations of 12.5 to 200 μM, both tests): 92-99% | neutralization of production of IL-1β in human cells (IL-1β; concentrations ranging from 50-200 μM): completely neutralize | immune defenses (arthritic psoriasis): increased | function of right hand and wrist (arthritic psoriasis; 90 days): regained function | side effects of MTX (arthritic psoriasis; person, within a few days): much milder | cytotoxicity (cell viability) (RAW 264.7 cells): no cytotoxicity | pain in breast and axilla ([1]; after commencing oral 140 mg per day): subsided within two days | pain following discontinuation of CPDS ([1]; after discontinuation): returned within two to three days | side effect ([1]; oral 140 mg per day): No side effect | growth of breast hyperplasia (mammograms) ([1]; person, oral 140 mg per day, forty-eight months): stopped growing | kidney or liver weight [2, 11]: slight increase | lethality [2, 11]: not fatal | tolerability ([2]; doses up to 300 mg/kg (1 mM) intravenous): tolerated
